Source: ChEMBL document CHEMBL3885861, “Open TG-GATES”

Species: Rattus norvegicus
Test: Open TG-GATES - Regimen: Daily Repeat
Format: toxicity, organism-based, Sprague-Dawley
Design: regimen Daily Repeat, gender Male, age 6 weeks
Conditions: in vivo, po, 30 mg/kg, route gavage, dose level Low; for APTT / Bas / Eos / Fbg / Hb / Ht / Lym / MCH / MCHC / MCV / Mono / Neu / PT / Plat / RBC / Ret / WBC: tissue Blood; for KIDNEY_L / KIDNEY_R / KIDNEY_TOTAL: tissue Kidney; for LIVER: tissue Liver; for ALP / ALT / AST / BUN / CRE / DBIL / GLC / IP / K / LDH / Na / PL / RALB / TBIL / TC / TG / TP / gamma-GTP: tissue Plasma

Clc1ccccc1CN1CCc2sccc2C1 [TICLOPIDINE]
TERMINAL_BW (72 h, time 3 day): 232 g | APTT (72 h, time 3 day): 19.7 s | Bas (72 h, time 3 day): 0.6% | Eos (72 h, time 3 day): 1% | Fbg (72 h, time 3 day): 223.6 mg/dL | Hb (72 h, time 3 day): 13.6 g/dL | Ht (72 h, time 3 day): 38.5% | Lym (72 h, time 3 day): 74.2% | MCH (72 h, time 3 day): 21.5 pg | MCHC (72 h, time 3 day): 35.2% | MCV (72 h, time 3 day): 61.1 fL | Mono (72 h, time 3 day): 3% | Neu (72 h, time 3 day): 20.2% | PT (72 h, time 3 day): 11.6 s | Plat (72 h, time 3 day): 129 x10_4/uL | RBC (72 h, time 3 day): 631.6 x10_4/ul | Ret (72 h, time 3 day): 6.2% | WBC (72 h, time 3 day): 88 x10_2/uL | KIDNEY_L (72 h, time 3 day): 1 g | KIDNEY_R (72 h, time 3 day): 1 g | KIDNEY_TOTAL (72 h, time 3 day): 2 g | LIVER (72 h, time 3 day): 11.3 g | ALP (72 h, time 3 day): 1106 IU/L | ALT (72 h, time 3 day): 36.4 IU/L | AST (72 h, time 3 day): 67.8 IU/L | BUN (72 h, time 3 day): 14.8 mg/dL | CRE (72 h, time 3 day): 0.4 mg/dL | DBIL (72 h, time 3 day): 0.072 mg/dL | GLC (72 h, time 3 day): 212 mg/dL | IP (72 h, time 3 day): 7.5 mg/dL | K (72 h, time 3 day): 4.1 meq/L | LDH (72 h, time 3 day): 163.6 IU/L | Na (72 h, time 3 day): 142 meq/L | PL (72 h, time 3 day): 155.8 mg/dL | RALB (72 h, time 3 day): 3.4 g/dL | TBIL (72 h, time 3 day): 0.1 mg/dL | TC (72 h, time 3 day): 75.4 mg/dL | TG (72 h, time 3 day): 100.8 mg/dL | TP (72 h, time 3 day): 5.6 g/dL | gamma-GTP (72 h, time 3 day): 1 IU/L | TERMINAL_BW ([…], time 7 day): 262.3 g | TERMINAL_BW ([…], time 14 day): 314 g | TERMINAL_BW ([…], time 28 day): 386.1 g | APTT ([…], time 7 day): 18.1 s | Bas ([…], time 7 day): 0.8% | Eos ([…], time 7 day): 1% | Fbg ([…], time 7 day): 231.2 mg/dL | Hb ([…], time 7 day): 14.1 g/dL | Ht ([…], time 7 day): 39.3% | Lym ([…], time 7 day): 76% | MCH ([…], time 7 day): 21.3 pg | MCHC ([…], time 7 day): 35.7% | MCV ([…], time 7 day): 59.7 fL | Mono ([…], time 7 day): 3.2% | Neu ([…], time 7 day): 18.2% | PT ([…], time 7 day): 11.2 s | Plat ([…], time 7 day): 117.8 x10_4/uL | RBC ([…], time 7 day): 658.6 x10_4/ul | Ret ([…], time 7 day): 5.8% | WBC ([…], time 7 day): 104.1 x10_2/uL | APTT ([…], time 14 day): 21.4 s | Bas ([…], time 14 day): 0.8% | Eos ([…], time 14 day): 0.8% | Fbg ([…], time 14 day): 221.2 mg/dL | Hb ([…], time 14 day): 14.1 g/dL | Ht ([…], time 14 day): 39.2% | Lym ([…], time 14 day): 78.6% | MCH ([…], time 14 day): 21.2 pg | MCHC ([…], time 14 day): 36.1% | MCV ([…], time 14 day): 58.7 fL | Mono ([…], time 14 day): 2.6% | Neu ([…], time 14 day): 16.8% | PT ([…], time 14 day): 11.6 s | Plat ([…], time 14 day): 116.9 x10_4/uL | RBC ([…], time 14 day): 668.2 x10_4/ul | Ret ([…], time 14 day): 4.7% | WBC ([…], time 14 day): 124.8 x10_2/uL | APTT ([…], time 28 day): 18 s | Bas ([…], time 28 day): 0.6% | Eos ([…], time 28 day): 1.2% | Fbg ([…], time 28 day): 223.6 mg/dL | Hb ([…], time 28 day): 14.9 g/dL | Ht ([…], time 28 day): 40.4% | Lym ([…], time 28 day): 82% | MCH ([…], time 28 day): 19.9 pg | MCHC ([…], time 28 day): 37% | MCV ([…], time 28 day): 53.7 fL | Mono ([…], time 28 day): 2% | Neu ([…], time 28 day): 13.8% | PT ([…], time 28 day): 11.7 s | Plat ([…], time 28 day): 106 x10_4/uL | RBC ([…], time 28 day): 752.8 x10_4/ul | Ret ([…], time 28 day): 2.9% | WBC ([…], time 28 day): 115.9 x10_2/uL | KIDNEY_L ([…], time 7 day): 1.1 g | KIDNEY_R ([…], time 7 day): 1.1 g | KIDNEY_TOTAL ([…], time 7 day): 2.2 g | KIDNEY_L ([…], time 14 day): 1.3 g | KIDNEY_R ([…], time 14 day): 1.2 g | KIDNEY_TOTAL ([…], time 14 day): 2.5 g | KIDNEY_L ([…], time 28 day): 1.3 g | KIDNEY_R ([…], time 28 day): 1.3 g | KIDNEY_TOTAL ([…], time 28 day): 2.7 g | LIVER ([…], time 7 day): 12.2 g | LIVER ([…], time 14 day): 14.3 g | LIVER ([…], time 28 day): 15.6 g | ALP ([…], time 7 day): 861.2 IU/L | ALT ([…], time 7 day): 38.4 IU/L | AST ([…], time 7 day): 71.8 IU/L | BUN ([…], time 7 day): 15.4 mg/dL | CRE ([…], time 7 day): 0.4 mg/dL | DBIL ([…], time 7 day): 0.068 mg/dL | GLC ([…], time 7 day): 204.4 mg/dL | IP ([…], time 7 day): 7.6 mg/dL | K ([…], time 7 day): 3.9 meq/L | LDH ([…], time 7 day): 167.6 IU/L | Na ([…], time 7 day): 142.4 meq/L | PL ([…], time 7 day): 150.8 mg/dL | RALB ([…], time 7 day): 3.5 g/dL | TBIL ([…], time 7 day): 0.1 mg/dL | TC ([…], time 7 day): 78.4 mg/dL | TP ([…], time 7 day): 5.7 g/dL | gamma-GTP ([…], time 7 day): 1 IU/L | ALP ([…], time 14 day): 887.6 IU/L | ALT ([…], time 14 day): 36.4 IU/L | AST ([…], time 14 day): 68.8 IU/L | BUN ([…], time 14 day): 16.8 mg/dL | CRE ([…], time 14 day): 0.4 mg/dL | DBIL ([…], time 14 day): 0.058 mg/dL | GLC ([…], time 14 day): 225.4 mg/dL | IP ([…], time 14 day): 7.7 mg/dL | K ([…], time 14 day): 4.2 meq/L | LDH ([…], time 14 day): 174.2 IU/L | Na ([…], time 14 day): 142.2 meq/L | PL ([…], time 14 day): 154.8 mg/dL | RALB ([…], time 14 day): 3.3 g/dL | TBIL ([…], time 14 day): 0.1 mg/dL | TC ([…], time 14 day): 74.4 mg/dL | TG ([…], time 14 day): 120.6 mg/dL | TP ([…], time 14 day): 5.7 g/dL | gamma-GTP ([…], time 14 day): 1 IU/L | ALP ([…], time 28 day): 647.4 IU/L | ALT ([…], time 28 day): 37 IU/L | AST ([…], time 28 day): 64.2 IU/L | BUN ([…], time 28 day): 15.8 mg/dL | CRE ([…], time 28 day): 0.5 mg/dL | DBIL ([…], time 28 day): 0.07 mg/dL | GLC ([…], time 28 day): 200.8 mg/dL | IP ([…], time 28 day): 7.2 mg/dL | K ([…], time 28 day): 3.8 meq/L | LDH ([…], time 28 day): 145 IU/L | Na ([…], time 28 day): 142 meq/L | PL ([…], time 28 day): 158.4 mg/dL | RALB ([…], time 28 day): 3.5 g/dL | TBIL ([…], time 28 day): 0.1 mg/dL | TC ([…], time 28 day): 78.4 mg/dL | TG ([…], time 28 day): 133.8 mg/dL | TP ([…], time 28 day): 5.8 g/dL | gamma-GTP ([…], time 28 day): 1 IU/L
